Results taken from patent US9187524B2, “Broad spectrum antibiotic arylomycin analogs” (The Scripps Research Institute, priority 2010, dated 2015).
Converted amounts (≈) assume the structure as drawn. Like-named read-outs stand apart in the source and are kept apart here.

Legend:
[1] = test system: wild type S. epidermidis RP62A; assay: microbe, parasite or virus in culture; type: cell-based, Staphylococcus epidermidis; conditions: Staphylococcus epidermidis
[2] = test system: lepB(P29S) S. aureus 8325; assay: microbe, parasite or virus in culture; type: cell-based, Staphylococcus aureus; conditions: for MIC: Staphylococcus aureus
[3] = test system: lepB(P84L) E. coli MG1655; assay: microbe, parasite or virus in culture; type: cell-based, Escherichia coli; conditions: for MIC: Escherichia coli
[4] = test system: lepB(P84L) P. aeruginosa PAO1; assay: microbe, parasite or virus in culture; type: cell-based, Pseudomonas aeruginosa; conditions: for MIC: Pseudomonas aeruginosa
wild type S. aureus 8325 = assay: microbe, parasite or virus in culture; type: cell-based, Staphylococcus aureus; conditions: for MIC: Staphylococcus aureus
wild type E. coli MG1655 = assay: microbe, parasite or virus in culture; type: cell-based, Escherichia coli; conditions: for MIC: Escherichia coli
[5] = test system: wild type P. aeruginosa PAO1; assay: microbe, parasite or virus in culture; type: cell-based, Pseudomonas aeruginosa; conditions: for MIC: Pseudomonas aeruginosa
R. opacus = assay: microbe, parasite or virus in culture; type: cell-based; conditions: Rhodococcus opacus
S. pyogenes = assay: microbe, parasite or virus in culture; type: cell-based, Streptococcus pyogenes; conditions: for MIC: Streptococcus pyogenes
S. pneumoniae = assay: microbe, parasite or virus in culture; type: cell-based, Streptococcus pneumoniae; conditions: for MIC: Streptococcus pneumoniae
C. efficiens = assay: microbe, parasite or virus in culture; type: cell-based; conditions: Corynebacterium efficiens
[6] = test system: Staphylococcus haemolyticus; assay: microbe, parasite or virus in culture; type: cell-based; conditions: Table 13
Helicobacter pylori = assay: microbe, parasite or virus in culture; type: cell-based
Chlamydia trachomatis = assay: microbe, parasite or virus in culture; type: cell-based
Francisella tularensis = assay: microbe, parasite or virus in culture; type: cell-based
[7] = test system: P. aeruginosa PAS2006 (SPase P84S); assay: microbe, parasite or virus in culture; type: cell-based; conditions: Pseudomonas aeruginosa, read-out: MIC, P. aeruginosa PAS2006
Rhodococcus erythropolis = assay: microbe, parasite or virus in culture; type: cell-based; conditions: Table 13
[8] = test system: Staphylococcus aureus (different strains); type: cell-based; conditions: Table 13; multiple values: different strains
Bacillus subtilis = assay: microbe, parasite or virus in culture; type: cell-based; conditions: Table 13
Klebsiella pneumoniae = assay: microbe, parasite or virus in culture; type: cell-based; conditions: Table 13
Lactobacillus gasseri = assay: microbe, parasite or virus in culture; type: cell-based; conditions: Table 13
[9] = test system: Lactobacillus acidophilus; assay: microbe, parasite or virus in culture; type: cell-based; conditions: Table 13
Lactobacillus plantarum = assay: microbe, parasite or virus in culture; type: cell-based; conditions: Lactiplantibacillus plantarum, Table 13
Clostridium perfringens = assay: microbe, parasite or virus in culture; type: cell-based; conditions: read-out: MIC, Clostridium perfringens
Bacteroides fragilis = assay: microbe, parasite or virus in culture; type: cell-based; conditions: Table 13
Prevotella copris = assay: microbe, parasite or virus in culture; type: cell-based; conditions: Table 13
S. aureus COL = assay: microbe, parasite or virus in culture; type: cell-based; conditions: Staphylococcus aureus, read-out: MIC, S. aureus COL
S. aureus Rosenbach 328 = assay: microbe, parasite or virus in culture; type: cell-based; conditions: Staphylococcus aureus; MRSA strain
[10] = test system: E. coli strains harboring the indicated amino acid at SPase residue 84; assay: microbe, parasite or virus in culture; type: cell-based; conditions: Escherichia coli
[11] = target: T1, truncated wild type E. coli SPase (Escherichia coli, UniProt P00803); assay: biochemical; type: binding
T1 construct: a truncated wild type E. coli SPase that lacks the N-terminal membrane helices; made in house; host or cells: E. coli BL21(DE3)

[12] = target: T2, full-length wild type S. aureus SPase (Pro-variant) (Staphylococcus aureus, UniProt P0A070); assay: biochemical; type: binding
T2 construct: Full length His-tagged S. aureus SPase proteins were expressed in and purified from BL21(DE3); His6 (N); made in house; host or cells: E. coli BL21(DE3)

[13] = Table 2B, SPase without resistance-conferring Pro
[14] = Table 2B, SPase with resistance-conferring Pro

CCCCCCCCCCCCCCCC(=O)N(C)[C@H](CO)C(=O)N[C@H](C)C(=O)NCC(=O)N(C)[C@@H]1C(=O)N[C@@H](C)C(=O)N[C@H](C(=O)O)Cc2ccc(O)c(c2)-c2cc1ccc2O [Arylomycin C16]
MIC ([1]; Table 11, […], read-out: MIC, S. epidermidis RP62A): 0.25 µg/mL (≈ 0.284 µM)
MIC ([1]; Table 13, […], read-out: MIC, Staphylococcus epidermidis): 0.25 µg/mL (≈ 0.284 µM)
MIC ([1]; read-out: MIC, S. epidermidis): 0.25 µg/mL (≈ 0.284 µM)
MIC ([1]; read-out: MIC, Sensitive Se): 0.5 µg/mL (≈ 0.567 µM)
MIC ([2]; read-out: MIC, S. aureus P29S): 8 µg/mL (≈ 9.08 µM)
MIC ([2]; read-out: MIC, S. aureus PAS8001): 2 µg/mL (≈ 2.27 µM)
MIC ([2]; read-out: MIC, Sensitive Sa): 2 µg/mL (≈ 2.27 µM)
MIC, Sensitive Sa [2, 13]: 2 µg/mL (≈ 2.27 µM)
MIC ([3]; MG1655, read-out: MIC, E. coli P84L): 2 µg/mL (≈ 2.27 µM)
MIC ([3]; MG1655, read-out: MIC, Sensitive Ec): 0.5 µg/mL (≈ 0.567 µM)
MIC, Sensitive Ec [3, 13]: 0.5 µg/mL (≈ 0.567 µM)
MIC ([4]; PAO1, read-out: MIC, P. aeruginosa P84L): 4 µg/mL (≈ 4.54 µM)
MIC ([4]; PAO1, read-out: MIC, Sensitive Pa): 8 µg/mL (≈ 9.08 µM)
MIC, Sensitive Pa [4, 13]: 8 µg/mL (≈ 9.08 µM)
MIC (wild type S. aureus 8325; read-out: MIC, Resistant Sa): > 64 µg/mL
MIC (wild type S. aureus 8325; Table 11, […], read-out: MIC, S. aureus NTCT 8325): > 128 µg/mL
MIC, Resistant Sa (wild type S. aureus 8325; [14]): >64 µg/mL
MIC (wild type E. coli MG1655; MG1655, read-out: MIC, Resistant Ec): > 64 µg/mL
MIC (wild type E. coli MG1655; MG1655, Table 11, […], read-out: MIC, E. coli MG1655): > 128 µg/mL
MIC (wild type E. coli MG1655; MG1655, Table 13, […], read-out: MIC, Escherichia coli): > 128 µg/mL
MIC (wild type E. coli MG1655; MG1655, read-out: MIC, E. coli): > 64 µg/mL
MIC, Resistant Ec (wild type E. coli MG1655; [14]): >64 µg/mL
MIC ([5]; PAO1, read-out: MIC, Resistant Pa): > 64 µg/mL
MIC ([5]; PAO1, Table 11, […], read-out: MIC, P. aeruginosa PAO1): > 128 µg/mL
MIC ([5]; PAO1, Table 13, […], read-out: MIC, Pseudomonas aeruginosa): > 128 µg/mL
MIC, Resistant Pa [5, 14]: >64 µg/mL
MIC (R. opacus; Table 4, read-out: MIC, R. opacus): 1 µg/mL (≈ 1.13 µM)
MIC (R. opacus; Table 13, […], read-out: MIC, Rhodococcus opacus): 2 µg/mL (≈ 2.27 µM)
MIC (S. pyogenes; Table 4, read-out: MIC, S. pyogenes): 8 µg/mL (≈ 9.08 µM)
MIC (S. pyogenes; Table 13, […], read-out: MIC, Streptococcus pyogenes): 16 µg/mL (≈ 18.2 µM)
MIC, S. pyogenes (S. pyogenes; Table 14): 8 µg/mL (≈ 9.08 µM)
MIC (S. pneumoniae; Table 4, read-out: MIC, S. pneumoniae): 8 µg/mL (≈ 9.08 µM)
MIC (S. pneumoniae; Table 13, […], read-out: MIC, Streptococcus pneumoniae): 16 µg/mL (≈ 18.2 µM)
MIC, S. pneumoniae (S. pneumoniae; Table 14): 8 µg/mL (≈ 9.08 µM)
MIC (C. efficiens; Table 4, read-out: MIC, C. efficiens): 16 µg/mL (≈ 18.2 µM)
MIC (C. efficiens; Table 13, […], read-out: MIC, Corynebacterium efficiens): > 64 µg/mL
MIC (C. efficiens; text b755, read-out: MIC, Corynebacterium efficiens): 16 µg/mL (≈ 18.2 µM)
MIC [6]: 2 µg/mL (≈ 2.27 µM)
MIC (Helicobacter pylori; Table 13, […], read-out: MIC, Helicobacter pylori): 4 µg/mL (≈ 4.54 µM)
MIC (Helicobacter pylori; read-out: MIC, H. pylori): 4 µg/mL (≈ 4.54 µM)
MIC (Chlamydia trachomatis; Table 13, […], read-out: MIC, Chlamydia trachomatis): 6 µg/mL (≈ 6.81 µM)
MIC (Chlamydia trachomatis; eradicated from human HeLa 229 cells, read-out: MIC, C. trachomatis): 6 µg/mL (≈ 6.81 µM)
MIC (Francisella tularensis; read-out: MIC, Francisella tularensis clinical isolate): 32 µg/mL (≈ 36.3 µM)
MIC (Francisella tularensis; read-out: MIC, Francisella tularensis clinical isolates, 8 of nineteen clinical isolates): 4 to 16 µg/mL (≈ 4.54 to 18.2 µM)
MIC (Francisella tularensis; read-out: MIC, Francisella tularensis clinical isolates, remainder of nineteen clinical isolates): > 64 µg/mL
MIC [7]: 8 µg/mL (≈ 9.08 µM)
MIC (Rhodococcus erythropolis): 16 µg/mL (≈ 18.2 µM)
MIC, Staphylococcus aureus [8]: 16 to 32 µg/mL
MIC (Bacillus subtilis): > 128 µg/mL
MIC (Klebsiella pneumoniae): > 128 µg/mL
MIC (Lactobacillus gasseri): > 128 µg/mL
MIC [9]: > 128 µg/mL
MIC (Lactobacillus plantarum): > 128 µg/mL
MIC (Clostridium perfringens): > 16 µg/mL
MIC (Bacteroides fragilis): > 16 µg/mL
MIC (Prevotella copris): > 16 µg/mL
MIC (S. aureus COL): 12 µg/mL (≈ 13.6 µM)
MIC (S. aureus Rosenbach 328): 25 µg/mL (≈ 28.4 µM)
MIC ([10]; read-out: MIC, E. coli SPase residue 84 His variant): 4 µg/mL (≈ 4.54 µM)
MIC ([10]; read-out: MIC, E. coli SPase residue 84 Phe or His variant): 2 µg/mL (≈ 2.27 µM)
MIC ([10]; read-out: MIC, E. coli with Pro at SPase residue 84): > 256 µg/mL
MIC ([10]; read-out: MIC, E. coli with any other amino acid at SPase residue 84): ≤ 16 µg/mL
Kd [11]: 979 ± 69 nM
Kd [12]: 1280 ± 278 nM
